Measurements as given in ChEMBL document CHEMBL1201862, “PubChem BioAssay data set” (2004).
Activity calls are given as the source filed them.

Columns and labels:
[1] = biological target: Metabotropic glutamate receptor 5 (Rattus norvegicus, UniProt P31424); experiment: Identification of a glycine sulfonamide based non-MPEP site positive allosteric potentiator (PAM) of mGlu5 (calcium_assay).; format: functional
[2] = biological target: T1, Oxysterols receptor LXR-beta (Homo sapiens, UniProt P55055); format: functional, cell-based;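 note: Cell-based luminescence dose-response assay of agonist activity at LXR, run as a confirmatory counterscreen to a daf-12 agonist screen; HEK293 cells with Gal4-LXR fusion and GAL4-driven luciferase reporter; agonist potency from rising luciferase signal of a Gal4-LXR reporter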
T1 sequence (P55055 whole entry): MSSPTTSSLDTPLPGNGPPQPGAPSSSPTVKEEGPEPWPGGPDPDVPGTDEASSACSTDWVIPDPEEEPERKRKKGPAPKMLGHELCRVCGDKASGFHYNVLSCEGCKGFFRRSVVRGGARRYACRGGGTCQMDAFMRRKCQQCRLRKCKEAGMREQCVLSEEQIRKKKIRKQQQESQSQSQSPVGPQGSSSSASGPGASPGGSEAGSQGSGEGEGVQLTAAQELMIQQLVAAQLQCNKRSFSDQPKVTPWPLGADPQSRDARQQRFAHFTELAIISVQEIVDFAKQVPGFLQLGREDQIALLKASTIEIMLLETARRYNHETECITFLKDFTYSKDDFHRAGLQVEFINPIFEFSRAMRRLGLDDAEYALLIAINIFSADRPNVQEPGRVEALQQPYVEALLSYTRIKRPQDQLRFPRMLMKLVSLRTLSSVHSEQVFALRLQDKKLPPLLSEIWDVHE

[3] = cells
[4] = biological target: T2, High affinity choline transporter 1 (Homo sapiens, UniProt Q9GZV3); experiment: CHT choline uptake inhibitors, dose response, cell-based, HEK-293 hCHT, [3H]-choline uptake (AID 652177); format: functional
T2 sequence (Q9GZV3 whole entry): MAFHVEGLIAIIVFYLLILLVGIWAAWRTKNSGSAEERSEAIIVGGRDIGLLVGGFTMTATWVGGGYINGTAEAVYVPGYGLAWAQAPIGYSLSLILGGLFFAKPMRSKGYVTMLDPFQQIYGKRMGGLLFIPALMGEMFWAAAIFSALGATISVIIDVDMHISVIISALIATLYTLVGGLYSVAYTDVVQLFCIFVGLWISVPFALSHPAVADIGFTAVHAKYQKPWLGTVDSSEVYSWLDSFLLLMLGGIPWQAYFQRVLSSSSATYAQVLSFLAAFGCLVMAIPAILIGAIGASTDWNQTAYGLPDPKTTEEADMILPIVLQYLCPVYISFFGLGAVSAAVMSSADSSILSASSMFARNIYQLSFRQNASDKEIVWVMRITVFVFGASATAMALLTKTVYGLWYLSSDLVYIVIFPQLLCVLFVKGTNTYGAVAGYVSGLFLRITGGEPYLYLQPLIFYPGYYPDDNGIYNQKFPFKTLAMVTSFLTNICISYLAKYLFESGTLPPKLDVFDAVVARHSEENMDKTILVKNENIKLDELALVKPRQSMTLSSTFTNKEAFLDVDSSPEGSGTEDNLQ

[5] = Keap1 Kelch-Nrf2 peptide binding inhibitors, dose response, biochemical, fluorescence polarization, dry powder, set 3 (AID 651806)
[6] = HEK293T cell cytotoxicity, dose response, cytotoxicity control, luminescence plate reader, powder samples, set 4 (AID 651863); format: functional, cell-based; details: HEK293
[7] = biological target: Potassium channel subfamily K member 9 (Homo sapiens, UniProt Q9NPC2); experiment: TASK3 (KCNK9) channel inhibitors, thallium flux, SAR follow-up, selectivity assay for TASK1 inhibitor project, cell-based, FluxOR thallium flux, concentration-response (AID 652211); format: functional;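 note: potency is for inhibitors of the channel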
[8] = biological target: Potassium channel subfamily K member 3 (Homo sapiens, UniProt O14649); experiment: TASK1 (KCNK3) potassium channel inhibitors, SAR follow-up, CHO cells, FluxOR thallium flux (AID 652212); format: functional
[9] = IRAP inhibitors, dose response, selectivity assay for ERAP1 modulator project, biochemical, Leu-AMC fluorescence, cherry-picked samples, set 2 (AID 743340)
[10] = tested on: Streptococcus sp. 'group A'; experiment: growth inhibition of control SK(-) GAS strain, dose response, counter-screen for streptokinase expression inhibitor project, luminescence, kanamycin, BacTiterGlo, confirmation (AID 1900); format: functional, organism-based
[11] = tested on: Streptococcus; experiment: Group A Streptococcus viability loss, dose response, counter-screen for streptokinase expression inhibitor project, luminescence, BacTiterGlo (AID 1915); format: functional, organism-based;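 note: potency for reduction of bacterial viability or growth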
[12] = tested on: Vero; experiment: cells; format: functional, cell-based; details: Chlorocebus sabaeus
[13] = tested on: Vero; experiment: cells; format: functional; details: Chlorocebus sabaeus
[14] = biological target: T3, Corticotropin-releasing factor receptor 2/Corticotropin-releasing factor-binding protein (Homo sapiens, UniProt P24387+Q13324); experiment: activators of CRF receptor 2 with binding protein – uHTS hits, confirmation (AID 602473); format: functional; details: read-out: EC50_Mean
T3 sequence (Q13324 whole entry): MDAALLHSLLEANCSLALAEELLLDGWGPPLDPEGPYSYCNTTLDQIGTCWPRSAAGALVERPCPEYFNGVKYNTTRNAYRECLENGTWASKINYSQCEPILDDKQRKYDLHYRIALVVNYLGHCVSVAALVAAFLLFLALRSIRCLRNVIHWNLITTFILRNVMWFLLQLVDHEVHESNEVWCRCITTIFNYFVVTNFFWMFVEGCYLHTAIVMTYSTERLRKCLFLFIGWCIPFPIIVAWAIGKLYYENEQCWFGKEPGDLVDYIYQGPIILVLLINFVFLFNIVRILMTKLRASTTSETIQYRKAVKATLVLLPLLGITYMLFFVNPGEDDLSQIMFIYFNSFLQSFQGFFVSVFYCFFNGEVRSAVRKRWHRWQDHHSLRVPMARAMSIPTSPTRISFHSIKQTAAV
T3 sequence (P24387 whole entry): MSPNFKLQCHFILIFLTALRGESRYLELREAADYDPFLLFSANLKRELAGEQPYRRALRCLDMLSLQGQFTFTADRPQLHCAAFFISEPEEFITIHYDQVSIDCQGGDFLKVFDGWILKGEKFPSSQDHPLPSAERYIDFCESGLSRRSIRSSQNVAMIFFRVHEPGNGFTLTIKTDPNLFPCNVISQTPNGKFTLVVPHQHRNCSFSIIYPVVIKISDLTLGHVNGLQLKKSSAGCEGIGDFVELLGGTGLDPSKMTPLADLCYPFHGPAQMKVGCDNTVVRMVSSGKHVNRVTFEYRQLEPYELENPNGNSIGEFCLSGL

[15] = human group III sPLA2 inhibitors, dose response, biochemical, QFRET, IC50 (AID 743457);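 note: green fluorescence rise as the enzyme cleaves BODIPY PC-A2 in liposomes; potency for inhibition of the enzyme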
[16] = biological target: T4, Streptokinase A (Streptococcus pyogenes serotype M1, UniProt P10520); experiment: S. pyogenes streptokinase expression inhibitors, potency, dose response, plasminogen activation absorbance, OD405 (AID 1914); format: functional, Streptococcus pyogenes M1 GAS;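 note: secreted streptokinase activity via plasminogen activation per viability signal from cell pellet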
T4 sequence (P10520 whole entry): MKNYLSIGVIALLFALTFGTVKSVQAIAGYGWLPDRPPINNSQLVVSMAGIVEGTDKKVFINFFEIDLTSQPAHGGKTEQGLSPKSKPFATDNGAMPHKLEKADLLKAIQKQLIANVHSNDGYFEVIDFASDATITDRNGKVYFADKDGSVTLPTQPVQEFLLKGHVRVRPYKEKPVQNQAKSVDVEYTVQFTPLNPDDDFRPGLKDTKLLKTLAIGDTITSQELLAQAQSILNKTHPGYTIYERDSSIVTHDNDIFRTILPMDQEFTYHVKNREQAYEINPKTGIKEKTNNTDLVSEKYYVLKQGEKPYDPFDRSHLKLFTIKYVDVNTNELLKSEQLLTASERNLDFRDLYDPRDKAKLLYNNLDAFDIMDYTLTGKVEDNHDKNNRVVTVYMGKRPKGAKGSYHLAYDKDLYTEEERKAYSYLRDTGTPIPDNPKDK

[17] = biological target: Caspase-6 (Homo sapiens, UniProt P55212); experiment: human caspase-6 inhibitors, dose response, biochemical, VEID-R110 fluorescence, cherry-pick (AID 720632)
[18] = biological target: T5, Methionyl-tRNA synthetase, putative (Trypanosoma brucei brucei, UniProt Q38C91); format: functional, Trypanosoma brucei brucei strain 927/4 GUTat10.1
[19] = Counterscreen for inhibitors of Trypanosoma brucei methionyl tRNA synthetase (MetRS): Luminescence-based cell-based high throughput dose response assay to identify compounds that are cytotoxic to Jurkat human T lymphocyte cells.; format: functional
[20] = biological target: T5, Methionyl-tRNA synthetase, putative; format: functional, Trypanosoma brucei brucei strain 927/4 GUTat10.1; remark: listed apart in the source
[21] = Late stage counterscreen for inhibitors of Trypanosoma brucei methionyl tRNA synthetase (MetRS): Luminescence-based cell-based high throughput dose response assay to identify compounds that are cytotoxic to Jurkat human T lymphocyte cells.; format: functional
[22] = tested on: HeLa; experiment: HeLa cell cytotoxicity, dose response, cytotoxicity control, ATP luminescence, cherry-pick samples (AID 687004); format: functional, cell-based; details: Homo sapiens
[23] = tested on: HEK293; experiment: HEK293T cell cytotoxicity, dose response, cytotoxicity control, ATP luminescence, cherry-pick samples (AID 687005); format: functional, cell-based; details: Homo sapiens;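 note: cells exposed to compound for 48 hours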
[24] = HEK293 Cytotoxicity Assay Measured in Cell-Based System Using Plate Reader - 7071-01_Inhibitor_Dose_CherryPick_Activity_Set2.; format: functional
[25] = biological target: Voltage-gated inwardly rectifying potassium channel KCNH2 (Homo sapiens, UniProt Q12809); experiment: hERG channel inhibition in selectivity testing, SAR follow-up, selectivity assay for TASK1 inhibitor project, FluxOR thallium flux, concentration-response, CHO cells (AID 652194); format: functional, cell-based
[26] = cytotoxicity in HeLa cells, dose response, cytotoxicity control, cell-based, plate reader, dry powder (AID 651946); format: functional
[27] = Luminescence Cell-Based Dose Confirmation HTS to Identify Activators of 5'UTR Stem-Loop Driven Alpha-Synuclein mRNA Translation in H4 Neuroglioblastoma Cells. [Related pubchem assays: 1829 (Project Summary), 1814 (Primary HTS)]; format: functional
[28] = Luminescence Cell-Based Dose Response HTS to Identify Activators of Luciferase Translation or Activity in H4 […] Cells. [Related pubchem assays: 1829 (Project Summary), 1814 (Primary HTS)]; format: functional
[29] = tested on: H4; experiment: Luminescence Cell-Based Dose Response HTS to Identify Activators of 5'UTR Stem-Loop Driven Prion Protein mRNA Translation in H4 Neuroglioblastoma Cells. [Related pubchem assays: 1829 (Project Summary), 1814 (Primary HTS)]; format: functional; details: Homo sapiens
[30] = cells; remark: listed apart in the source
[31] = cells; details: HEK293
[32] = biological target: Nuclear receptor subfamily 5 group A member 2 (Homo sapiens, UniProt O00482); format: functional, cell-based;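 note: HEK293T cells transfected with LRH-1 and a StAR promoter luciferase reporter; potency for inhibitors that lower LRH-1 driven reporter light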
[33] = biological target: Steroidogenic factor 1 (Homo sapiens, UniProt Q13285); experiment: Counterscreen for inverse agonists of the liver receptor homolog-1 (LRH-1; NR5A2): Luminescence-based cell-based high throughput dose response assay to identify inverse agonists of the Steroidogenic Factor 1 Nuclear Receptor (SF1; NR5A1).; format: functional
[34] = StAR promoter reporter inhibition counter-screen, dose response, counter-screen for LRH-1 inverse agonist project, cell-based, luminescence, luciferase reporter (AID 651969); format: functional
[35] = AlphaScreen signal interference by compounds, dose response, artefact control for ARNT/TACC3 disruptor project, biochemical, dual-tagged ARNT, dry powder (AID 720564)

T5 sequence (Q38C91 whole entry): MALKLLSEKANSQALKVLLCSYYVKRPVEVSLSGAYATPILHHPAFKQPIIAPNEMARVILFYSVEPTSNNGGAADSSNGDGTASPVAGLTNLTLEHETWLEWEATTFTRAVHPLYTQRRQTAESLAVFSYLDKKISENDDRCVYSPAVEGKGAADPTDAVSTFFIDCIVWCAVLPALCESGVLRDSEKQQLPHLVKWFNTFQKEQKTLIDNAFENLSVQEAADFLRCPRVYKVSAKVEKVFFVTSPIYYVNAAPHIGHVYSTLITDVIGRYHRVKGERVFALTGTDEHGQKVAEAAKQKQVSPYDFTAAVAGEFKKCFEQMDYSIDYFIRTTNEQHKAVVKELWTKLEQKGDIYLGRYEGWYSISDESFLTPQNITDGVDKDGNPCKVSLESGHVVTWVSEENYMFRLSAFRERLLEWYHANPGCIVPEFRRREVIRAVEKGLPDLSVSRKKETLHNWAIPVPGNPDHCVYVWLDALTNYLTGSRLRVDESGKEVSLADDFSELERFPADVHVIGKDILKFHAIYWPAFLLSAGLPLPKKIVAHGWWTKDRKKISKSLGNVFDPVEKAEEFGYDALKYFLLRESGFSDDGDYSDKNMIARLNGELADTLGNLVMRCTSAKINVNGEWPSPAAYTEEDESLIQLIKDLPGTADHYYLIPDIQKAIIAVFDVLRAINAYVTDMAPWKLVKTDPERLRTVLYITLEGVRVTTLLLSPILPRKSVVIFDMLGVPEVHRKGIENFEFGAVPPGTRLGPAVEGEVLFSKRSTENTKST
Chain of Potassium channel subfamily K member 3 (O14649 whole entry): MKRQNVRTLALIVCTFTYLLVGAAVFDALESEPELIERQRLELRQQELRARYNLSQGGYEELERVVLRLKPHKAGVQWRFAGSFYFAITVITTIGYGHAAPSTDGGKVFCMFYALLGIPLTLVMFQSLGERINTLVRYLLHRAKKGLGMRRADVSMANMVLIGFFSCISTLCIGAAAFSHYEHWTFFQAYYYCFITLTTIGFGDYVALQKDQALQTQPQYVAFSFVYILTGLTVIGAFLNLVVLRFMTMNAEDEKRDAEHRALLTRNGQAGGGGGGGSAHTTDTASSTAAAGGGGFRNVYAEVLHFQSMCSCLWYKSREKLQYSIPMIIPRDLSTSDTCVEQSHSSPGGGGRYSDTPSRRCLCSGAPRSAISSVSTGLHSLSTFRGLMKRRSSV
Chain of Steroidogenic factor 1 (Q13285 whole entry): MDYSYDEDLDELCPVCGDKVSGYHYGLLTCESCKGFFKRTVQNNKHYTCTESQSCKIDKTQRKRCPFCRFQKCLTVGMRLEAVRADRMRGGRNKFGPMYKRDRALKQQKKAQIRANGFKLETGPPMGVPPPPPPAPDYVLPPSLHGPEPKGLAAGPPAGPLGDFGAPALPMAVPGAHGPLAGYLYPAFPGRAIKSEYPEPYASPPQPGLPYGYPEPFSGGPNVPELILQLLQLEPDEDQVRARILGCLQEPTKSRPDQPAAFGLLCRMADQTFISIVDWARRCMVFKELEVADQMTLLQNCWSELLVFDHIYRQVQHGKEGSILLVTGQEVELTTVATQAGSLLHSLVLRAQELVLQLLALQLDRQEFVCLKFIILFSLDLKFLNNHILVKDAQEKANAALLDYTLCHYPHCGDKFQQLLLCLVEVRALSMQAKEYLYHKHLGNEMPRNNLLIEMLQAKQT
Chain of Metabotropic glutamate receptor 5 (P31424 whole entry, the tested form may be a part): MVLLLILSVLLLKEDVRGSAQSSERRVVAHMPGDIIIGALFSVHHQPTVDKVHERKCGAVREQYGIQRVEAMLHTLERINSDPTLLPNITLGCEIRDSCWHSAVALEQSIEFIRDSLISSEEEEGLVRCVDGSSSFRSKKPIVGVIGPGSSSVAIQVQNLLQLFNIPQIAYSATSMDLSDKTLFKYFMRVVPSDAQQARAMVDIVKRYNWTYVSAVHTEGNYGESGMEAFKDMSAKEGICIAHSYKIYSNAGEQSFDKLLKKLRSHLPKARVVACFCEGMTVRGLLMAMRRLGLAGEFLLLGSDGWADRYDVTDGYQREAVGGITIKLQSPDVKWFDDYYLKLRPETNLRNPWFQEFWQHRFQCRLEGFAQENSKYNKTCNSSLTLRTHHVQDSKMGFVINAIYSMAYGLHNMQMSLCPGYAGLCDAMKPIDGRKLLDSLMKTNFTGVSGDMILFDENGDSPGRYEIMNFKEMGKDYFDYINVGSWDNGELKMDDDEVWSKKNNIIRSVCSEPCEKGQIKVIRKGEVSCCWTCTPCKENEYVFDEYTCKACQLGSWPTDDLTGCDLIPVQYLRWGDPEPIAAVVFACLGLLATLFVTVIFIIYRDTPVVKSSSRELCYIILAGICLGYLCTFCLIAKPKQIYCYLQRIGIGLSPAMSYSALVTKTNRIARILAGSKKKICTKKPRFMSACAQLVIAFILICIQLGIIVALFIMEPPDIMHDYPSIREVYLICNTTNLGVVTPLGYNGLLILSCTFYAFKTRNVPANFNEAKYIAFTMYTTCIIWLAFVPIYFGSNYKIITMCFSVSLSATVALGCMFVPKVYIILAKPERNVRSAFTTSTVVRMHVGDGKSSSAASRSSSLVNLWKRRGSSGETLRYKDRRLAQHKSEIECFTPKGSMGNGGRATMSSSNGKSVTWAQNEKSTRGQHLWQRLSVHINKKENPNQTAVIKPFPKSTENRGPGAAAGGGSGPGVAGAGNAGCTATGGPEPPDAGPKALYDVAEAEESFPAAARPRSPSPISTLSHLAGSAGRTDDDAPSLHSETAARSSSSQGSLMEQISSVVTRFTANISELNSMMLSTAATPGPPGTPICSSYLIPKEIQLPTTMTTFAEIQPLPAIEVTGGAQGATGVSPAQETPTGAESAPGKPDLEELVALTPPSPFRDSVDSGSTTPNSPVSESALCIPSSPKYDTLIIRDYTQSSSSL
Chain of Voltage-gated inwardly rectifying potassium channel KCNH2 (Q12809 whole entry): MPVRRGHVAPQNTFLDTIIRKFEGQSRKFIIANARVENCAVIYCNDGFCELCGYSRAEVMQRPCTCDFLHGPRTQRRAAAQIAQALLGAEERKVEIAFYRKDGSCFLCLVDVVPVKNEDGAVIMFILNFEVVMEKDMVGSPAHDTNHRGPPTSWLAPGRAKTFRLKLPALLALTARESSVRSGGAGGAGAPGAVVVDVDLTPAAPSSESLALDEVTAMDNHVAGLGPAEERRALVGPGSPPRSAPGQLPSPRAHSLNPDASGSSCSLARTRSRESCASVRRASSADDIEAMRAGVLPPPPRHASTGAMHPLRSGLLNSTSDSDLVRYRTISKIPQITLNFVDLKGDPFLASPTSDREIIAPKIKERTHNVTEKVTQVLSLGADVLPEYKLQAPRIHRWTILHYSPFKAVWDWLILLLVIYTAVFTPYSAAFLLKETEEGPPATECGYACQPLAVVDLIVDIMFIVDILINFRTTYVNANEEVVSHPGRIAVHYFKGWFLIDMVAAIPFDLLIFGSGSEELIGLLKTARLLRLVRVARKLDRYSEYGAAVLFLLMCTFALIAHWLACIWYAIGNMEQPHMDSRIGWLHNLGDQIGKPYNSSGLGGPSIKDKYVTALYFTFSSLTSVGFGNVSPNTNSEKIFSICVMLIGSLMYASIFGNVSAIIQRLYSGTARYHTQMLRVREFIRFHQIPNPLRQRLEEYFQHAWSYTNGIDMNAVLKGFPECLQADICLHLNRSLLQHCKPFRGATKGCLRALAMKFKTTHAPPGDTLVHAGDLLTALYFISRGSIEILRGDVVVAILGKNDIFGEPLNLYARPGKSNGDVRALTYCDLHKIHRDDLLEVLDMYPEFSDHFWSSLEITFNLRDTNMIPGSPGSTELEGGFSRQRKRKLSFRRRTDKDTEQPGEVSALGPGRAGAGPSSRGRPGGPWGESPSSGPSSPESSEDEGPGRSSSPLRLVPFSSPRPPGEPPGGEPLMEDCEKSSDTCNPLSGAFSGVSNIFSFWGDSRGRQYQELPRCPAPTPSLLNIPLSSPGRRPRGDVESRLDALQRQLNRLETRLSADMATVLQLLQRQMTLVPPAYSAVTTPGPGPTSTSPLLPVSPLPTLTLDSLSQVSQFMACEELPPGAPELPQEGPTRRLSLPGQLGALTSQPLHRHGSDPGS
Chain of Caspase-6 (P55212 24-179 limits assumed): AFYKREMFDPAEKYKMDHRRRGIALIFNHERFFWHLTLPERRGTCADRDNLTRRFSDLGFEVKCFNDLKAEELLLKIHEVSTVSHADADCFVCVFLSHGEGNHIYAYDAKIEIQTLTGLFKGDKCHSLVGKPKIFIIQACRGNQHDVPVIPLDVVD
Chain of Caspase-6 (P55212 194-293 limits assumed): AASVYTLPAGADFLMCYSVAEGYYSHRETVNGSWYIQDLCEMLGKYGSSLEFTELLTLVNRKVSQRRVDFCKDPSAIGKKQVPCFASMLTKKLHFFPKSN
Chain of Nuclear receptor subfamily 5 group A member 2 (O00482 whole entry): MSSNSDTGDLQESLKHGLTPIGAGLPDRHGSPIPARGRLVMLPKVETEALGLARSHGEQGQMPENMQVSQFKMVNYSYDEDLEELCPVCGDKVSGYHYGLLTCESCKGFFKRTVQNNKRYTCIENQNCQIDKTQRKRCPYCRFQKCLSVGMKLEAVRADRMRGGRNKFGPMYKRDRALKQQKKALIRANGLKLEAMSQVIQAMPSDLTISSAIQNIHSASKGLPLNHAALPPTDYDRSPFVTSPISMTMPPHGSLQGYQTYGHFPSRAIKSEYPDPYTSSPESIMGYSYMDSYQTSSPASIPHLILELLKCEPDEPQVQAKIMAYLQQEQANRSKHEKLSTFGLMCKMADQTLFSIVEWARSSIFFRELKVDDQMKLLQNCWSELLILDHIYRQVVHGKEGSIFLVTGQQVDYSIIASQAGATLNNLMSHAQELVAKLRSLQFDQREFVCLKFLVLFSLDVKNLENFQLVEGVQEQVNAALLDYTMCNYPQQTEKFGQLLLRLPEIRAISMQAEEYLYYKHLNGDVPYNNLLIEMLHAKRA

## CS(=O)(=O)N(CC(=O)N1CCc2ccccc21)c1ccccc1Cl
[1]
  EC50: 10 µM (inconclusive)

## Cc1csc(SCC(=O)Nc2sccc2C#N)n1
[2]
  EC50: > 67.6 µM (inactive)
[3]
  EC50: > 67.6 µM (inactive)

## CCn1nc(C)c(CNC(=O)c2ccc(OC)c(OC3CCN(C(C)C)CC3)c2)c1C
[4]
  IC50: 1.75 µM (active)

## O=C(O)C1CCCCC1C(=O)N1CCc2ccccc2C1CN1Cc2ccccc2C1=O (stereo not drawn)
[5]
  AC50: 91.2 µM (active)
[6]
  AC50: 39.1 µM (active)

## CCOc1ccccc1NC(=O)c1cccc(NC(=O)c2cccc(C)c2)c1
[7]
  IC50: 0.29 µM (active)
[8]
  IC50: 0.017 µM (active)

## Cc1noc(C)c1S(=O)(=O)Nc1ccc2c(c1)C(=O)N([C@H](C)CO)C[C@H](C)[C@H](CN(C)Cc1ccc3c(c1)OCO3)OCCCC[C@@H](C)O2
[9]
  AC50: 15.7 µM (active)

## Cc1ccc(C(=O)NNC(=S)NC(=O)c2ccco2)cc1
[10]
  EC50: 1.87 µM (active)
[11]
  EC50: 8.89 µM (active)
[12]
  IC50: 23.6 µM (active)
[13]
  CC50: > 25 µM (active)
[14]
  EC50: 7.87 µM (active)
[15]
  IC50: > 122 µM (inactive)

## Oc1ccc(Cl)cc1CNc1cccc2cccnc12
[10]
  EC50: 23.9 µM (active)
[16]
  EC50: > 150 µM (not active)
[11]
  EC50: > 150 µM (not active)
[17]
  AC50: 48.4 µM (active)

## COc1ccccc1NS(=O)(=O)c1cccc(NC(=O)Nc2ccccc2)c1
[18]
  IC50: 1.27 µM (active)
[19]
  IC50: 48.8 µM (inactive)
[20]
  IC50: 0.644 µM (active)
[21]
  IC50: 64.2 µM (inactive)

## C[C@@H]1CN([C@@H](C)CO)S(=O)(=O)c2ccc(C#CC3CC3)cc2O[C@H]1CN(C)CC1CCOCC1
[22]
  AC50: > 52 µM (inactive)
[23]
  AC50: 31.7 µM (active)
[24]
  AC50: 31.7 µM (active)

## Cc1cccc(C(=O)Nc2cccc(NC(=O)c3ccc(C(C)(C)C)cc3)c2)c1
[25]
  IC50: 32.8 µM (active)
[8]
  IC50: 0.184 µM (active)

## FC(F)(F)Oc1ccccc1-c1nnc(SCc2ccccc2)o1
[26]
  AC50: > 52 µM (inactive)

## CC1CCN(S(=O)(=O)N2CCC(C(=O)NC3CCCC3)CC2)CC1
[27]
  EC50: > 120 µM (not active)
[28]
  EC50: > 120 µM (not active)
[29]
  EC50: > 120 µM (not active)
[30]
  AC50: > 70 µM (inactive)
[31]
  AC50: > 52 µM (inactive)

## COC(=O)c1ccc(NC(=O)CSc2ccc(-c3ccccn3)nn2)cc1
[32]
  IC50: 35.9 µM (inactive)
[33]
  IC50: 35.9 µM (inactive)
[34]
  IC50: 35.9 µM (inactive)
[35]
  AC50: 115 µM (active)
